According to patent publication US9133207B2, “Tetrandrine derivatives with substituted 5-carbon, preparation method and use thereof” (Hangzhou Bensheng Pharmaceutical Co., Ltd., priority 2011, dated 2015):
Converted amounts (≈) assume the structure as drawn.

Assays:
[1] = system: PANC-1 (pancreatic cancer); experiment: Solid tumor cell growth inhibition, MTT, 72 h (Example 7); type: cell-based, human; conditions: Homo sapiens; 72 h, MTT, PANC-1
Protocol: (§1) Human solid tumor cell lines: Hep-2 (laryngeal carcinoma), A549 (human lung cancer), CaES-17 (esophageal cancer cell), PC-3 (prostate cancer), CNE (nasopharyngeal carcinoma cell) and SK-OV-3 (ovarian cancer cell), all of which are purchased from China Center For Type Culture Collection; RKO (human colon adenocarcinoma cell), MGC 803 (human gastric cancer cell), MG63 (osteosarcoma), and U87 MG (malignant glioma cell), all of which are purchased from Fuxiang Bio-tech Co. Ltd., Shanghai, China; PANC-1 (pancreatic cancer), Huh? (human liver cancer cell), Becap37 (human breast cancer cell), and Hela (human cervical cancer cell), all of which are donated by Cancer Research Institute of Zhejiang University, China.
(§2) Reagents: the same as in Example 5.
(§3) Obtaining 4000 well-growing human solid tumor cells and inoculating them into wells of a 96-well cell culture plate. The culture medium is DMEM High Glucose cell culture medium containing 10% fetal bovine serum. The plate is placed in a carbon dioxide cell incubator (5% CO2) at 37° C. and incubated for 24 hours. After been added with tetrandrine derivatives of different concentration and mixing uniformly, the plate is placed in a carbon dioxide cell incubator (5% CO2) at 37° C. and incubated for 72 hours. Then the viable cell concentration is determined by the MTT method and the cell viability (%) after drug treatment is calculated. In this experiment, the cell viability of control group (not treated with any compound) is set as 100%.

PC-3 (prostate cancer) = experiment: as above; type: cell-based, human; conditions: Homo sapiens; 72 h, MTT, PC-3
Protocol: as §1, §2, §3

MG63 (osteosarcoma) = experiment: as above; type: cell-based, human; conditions: Homo sapiens; 72 h, MTT, MG-63
Protocol: as §1, §2, §3

[2] = system: CaES-17 (esophageal cancer cell); experiment: as above; type: cell-based, human; conditions: Homo sapiens, CaEs17; 72 h, MTT, CAES-17
Protocol: as §1, §2, §3

[3] = system: RPMI8226 (multiple myeloma); experiment: Multiple myeloma cell growth inhibition, MTT, 72 h (Example 6); type: cell-based, human; conditions: Homo sapiens, RPMI-8226; 72 h, MTT, RPMI8226
Protocol: Multiple myeloma and lymphoma cell lines: RPMI8226 (multiple myeloma), purchased from Fuxiang Bio-tech Co. Ltd., Shanghai, China.
as §2
Obtaining 6000 well-growing leukemia cells and inoculating them into wells of a 96-well cell culture plate. The culture medium is a 1640 cell culture medium containing 10% fetal bovine serum. After adding the tetrandrine derivatives of different concentrations and mixing uniformly, placing the plate in a carbon dioxide cell incubator (5% CO2) at 37° C. and incubated for 72 hours. Then the viable cell concentration is determined by the MTT method.

[4] = system: K562/adr (drug-resistant, chronic myeloid leukemia, CML); experiment: Leukemia cell growth inhibition, MTT, 72 h (Example 5); type: cell-based, human; conditions: Homo sapiens, K562/Adr; 72 h, MTT
Text: (§4) Leukemia cell lines: leukemia cell lines: K562/adr (drug-resistant, chronic myeloid leukemia, CML), NB4 (acute promyelocytic leukemia, AML), Kasumi-1 (acute myeloid leukemia M2 type, AML-M2), Jurkat (acute lymphoblastic leukemia, ALL), all of which are donated by Cancer Research Institute of Zhejiang University, China; and H9 (acute lymphoblastic leukemia, ALL), which is purchased from China Center for Type Culture Collection.
(§5) Reagents: The standard sample of tetrandrine (TTD) is purchased from Ci Yuan Biotechnology Co., Ltd., Shaanxi, China; and the 5-substituted tetrandrine derivatives of the present invention.
(§6) Obtaining 6000 well-growing leukemia cells and inoculating them into wells of a 96-well cell culture plate. The culture medium is a 1640 cell culture medium containing 10% fetal bovine serum. After adding the tetrandrine derivatives of different concentrations and mixing uniformly, placing the plate in a carbon dioxide cell incubator (5% CO2) at 37° C. and incubating for 72 hours. Then the viable cell concentration is determined by the MTT method.

[5] = system: H9 (acute lymphoblastic leukemia, ALL); experiment: as above; type: cell-based, human; conditions: Homo sapiens; 72 h, MTT
Text: as §4, §5, §6

[6] = system: Kasumi-1 (acute myeloid leukemia M2 type, AML-M2); experiment: as above; type: cell-based, human; conditions: Homo sapiens, Kasumi 1
Text: as §4, §5, §6

[7] = system: Jurkat (acute lymphoblastic leukemia, ALL); experiment: as above; type: cell-based, human; conditions: Homo sapiens, Jurkat; 72 h, MTT
Text: as §4, §5, §6

[8] = system: Becap37 (human breast cancer cell); experiment: Solid tumor cell growth inhibition, MTT, 72 h (Example 7); type: cell-based; conditions: Homo sapiens; 72 h, MTT, Becap-37
Protocol: as §1, §2, §3

A549 (human lung cancer) = experiment: as above; type: cell-based; conditions: Homo sapiens; 72 h, MTT, A549
Protocol: as §1, §2, §3

[9] = system: Huh7 (human liver cancer cell); experiment: as above; type: cell-based; conditions: Homo sapiens; 72 h, MTT, Huh-7
Protocol: as §1, §2, §3

[10] = system: MGC 803 (human gastric cancer cell); experiment: as above; type: cell-based; conditions: Homo sapiens
Protocol: as §1, §2, §3

| SMILES | IC50 [1] [µg/mL] | IC90 [1] [µg/mL] | IC50 (PC-3 (prostate cancer)) [µg/mL] | IC90 (PC-3 (prostate cancer)) [µg/mL] | IC50 (MG63 (osteosarcoma)) [µg/mL] | IC90 (MG63 (osteosarcoma)) [µg/mL] | IC50 [2] [µg/mL] | IC90 [2] [µg/mL] | IC50 [3] [µg/mL] | IC90 [3] [µg/mL] | IC50 [4] [µg/mL] | IC90 [4] [µg/mL] | IC50 [5] [µg/mL] | IC90 [5] [µg/mL] | IC50 [6] [µg/mL] | IC90 [6] [µg/mL] | IC50 [7] [µg/mL] | IC90 [7] [µg/mL] | IC50 [8] [µg/mL] | IC90 [8] [µg/mL] | other results |
| --- | --- | --- | --- | --- | --- | --- | --- | --- | --- | --- | --- | --- | --- | --- | --- | --- | --- | --- | --- | --- | --- |
| COc1ccc2cc1Oc1ccc(cc1)C[C@H]1c3cc(c(OC)cc3CCN1C)Oc1c(OC)c(OC)c(COCC3CCOC3)c3c1[C@H](C2)N(C)CC3 (stereo partly drawn) [BS-TE-417] | 4.66 (≈ 6.32 µM) | 9.5 (≈ 12.9 µM) | 4.1 (≈ 5.56 µM) | 7.91 (≈ 10.7 µM) | 1.06 (≈ 1.44 µM) | 3.66 (≈ 4.97 µM) | 2.04 (≈ 2.77 µM) | 12 (≈ 16.3 µM) | 0.27 (≈ 0.366 µM) | 2 (≈ 2.71 µM) | 0.88 (≈ 1.19 µM) | 4.63 (≈ 6.28 µM) | 2.03 (≈ 2.75 µM) | 4.37 (≈ 5.93 µM) | 1.8 (≈ 2.44 µM) | 9.69 (≈ 13.1 µM) | 3.64 (≈ 4.94 µM) | 12.1 (≈ 16.5 µM) | 1.77 (≈ 2.4 µM) | 3.79 (≈ 5.14 µM) | IC50 (A549 (human lung cancer)): 3.88 µg/mL (≈ 5.27 µM); IC90 (A549 (human lung cancer)): 10.1 µg/mL (≈ 13.7 µM); IC50 [9]: 2.48 µg/mL (≈ 3.37 µM); IC90 [9]: 3.76 µg/mL (≈ 5.1 µM); IC50 [10]: 5.09 µg/mL (≈ 6.91 µM); IC90 [10]: 8.27 µg/mL (≈ 11.2 µM) |
| COc1ccc2cc1Oc1ccc(cc1)C[C@H]1c3cc(c(OC)cc3CCN1C)Oc1c(OC)c(OC)c(COCCn3ccnc3)c3c1[C@H](C2)N(C)CC3 [BS-TE-418] | 4.57 (≈ 6.12 µM) | 9.5 (≈ 12.7 µM) | 4.98 (≈ 6.67 µM) | 9.43 (≈ 12.6 µM) | 1.48 (≈ 1.98 µM) | 4.45 (≈ 5.96 µM) | 1.71 (≈ 2.29 µM) | 9.9 (≈ 13.3 µM) | 0.15 (≈ 0.201 µM) | 2.12 (≈ 2.84 µM) | 1.53 (≈ 2.05 µM) | 3.91 (≈ 5.23 µM) | 2.38 (≈ 3.19 µM) | 5 (≈ 6.69 µM) | 1.46 (≈ 1.95 µM) | 7.46 (≈ 9.99 µM) | 2.98 (≈ 3.99 µM) | 13.8 (≈ 18.5 µM) | 1.98 (≈ 2.65 µM) | 4.4 (≈ 5.89 µM) | IC50 (A549 (human lung cancer)): 4.5 µg/mL (≈ 6.02 µM); IC90 (A549 (human lung cancer)): 11 µg/mL (≈ 14.8 µM); IC50 [9]: 3.08 µg/mL (≈ 4.12 µM); IC90 [9]: 5.77 µg/mL (≈ 7.73 µM); IC50 [10]: 4.4 µg/mL (≈ 5.89 µM); IC90 [10]: 6.85 µg/mL (≈ 9.17 µM) |
| CCOCc1c2c3c(c(OC)c1OC)Oc1cc4c(cc1OC)CCN(C)[C@H]4Cc1ccc(cc1)Oc1cc(ccc1OC)C[C@@H]3N(C)CC2 [BS-TE-419] | 5.99 (≈ 8.8 µM) | 9.31 (≈ 13.7 µM) | 6.67 (≈ 9.8 µM) | 10.5 (≈ 15.4 µM) | 3.07 (≈ 4.51 µM) | 9.69 (≈ 14.2 µM) | 4.98 (≈ 7.31 µM) | 18.4 (≈ 27.1 µM) | 0.28 (≈ 0.411 µM) | 2.09 (≈ 3.07 µM) | 1.42 (≈ 2.09 µM) | 5.71 (≈ 8.39 µM) | 4.64 (≈ 6.82 µM) | 7.26 (≈ 10.7 µM) | 3.62 (≈ 5.32 µM) | 11.8 (≈ 17.4 µM) | 4.18 (≈ 6.14 µM) | 10.3 (≈ 15.2 µM) | 4.22 (≈ 6.2 µM) | 6.88 (≈ 10.1 µM) | IC50 (A549 (human lung cancer)): 5.61 µg/mL (≈ 8.24 µM); IC90 (A549 (human lung cancer)): 9.75 µg/mL (≈ 14.3 µM); IC50 [9]: 2.54 µg/mL (≈ 3.73 µM); IC90 [9]: 6.16 µg/mL (≈ 9.05 µM); IC50 [10]: 5.16 µg/mL (≈ 7.58 µM); IC90 [10]: 7.5 µg/mL (≈ 11 µM) |
